ChEMBL document CHEMBL1139899, “Alpha-phenyl-N-tert-butyl nitrone (PBN) derivatives: synthesis and protective action against microvascular damages induced by ischemia/reperfusion” (Bioorg Med Chem, 2007)

Assays:
[1] = Partition coefficient, log P of the compound; format: physicochemical; conditions: octanol/water
[2] = system: Syrian golden hamster; assay: Protective effect against ischemia/reperfusion-induced microvascular damages in golden hamster assessed as number of leakage site per cm^2 at 3 mg/kg, po after 10 mins by cheek pouch assay; format: functional, Mesocricetus auratus
[3] = system: Syrian golden hamster; assay: Protective effect against ischemia/reperfusion-induced microvascular damages in golden hamster assessed as number of leakage site per cm^2 at 3 mg/kg, po after 15 mins by cheek pouch assay; format: functional, Mesocricetus auratus
[4] = system: Syrian golden hamster; assay: Protective effect against ischemia/reperfusion-induced microvascular damages in golden hamster assessed as number of leakage site per cm^2 at 10 mg/kg, po after 15 mins by cheek pouch assay; format: functional, Mesocricetus auratus
[5] = system: Syrian golden hamster; assay: Protective effect against ischemia/reperfusion-induced microvascular damages in golden hamster assessed as number of leakage site per cm^2 at 10 mg/kg, po after 10 mins by cheek pouch assay; format: functional, Mesocricetus auratus

Structure (SMILES) | logP [1] | Activity [2] [leakage sites/cm2] | Activity [3] [leakage sites/cm2] | Activity [4] [cm2] | Activity [5] [cm2]
COc1cc(/C=[N+](/[O-])C(C)(C)C)ccc1O | 1.58 | 108 | 85 |  | 
CC(C)(C)/[N+]([O-])=C\c1cccnc1 | 0.21 | 68 | 60 |  | 
CC(C)(C)/[N+]([O-])=C/c1cc2c(cc1Br)OCO2 | 1.69 | 118 | 109 |  | 
CC(C)(C)/[N+]([O-])=C\c1ccc2c(c1)OCO2 | 0.57 | 44 | 38 |  | 
Cc1c(C)c2c(c(C)c1O)CC[C@@](C)(CCC[C@H](C)CCC[C@H](C)CCCC(C)C)O2 [ALPHA-TOCOPHEROL] |  |  |  | 45 | 50

Second part, led by results:

logP [1] | Structure (SMILES) | Activity [2] [leakage sites/cm2] | Activity [3] [leakage sites/cm2] | Activity [4] [cm2] | Activity [5] [cm2]
1.5 | CC(C)(C)/[N+]([O-])=C/c1ccccc1 |  |  |  | 
1.39 | CC(C)(C)/[N+]([O-])=C\c1ccc([N+](=O)[O-])cc1 | 90 | 78 |  | 
1.73 | CN(C)c1ccc(/C=[N+](/[O-])C(C)(C)C)cc1 | 75 | 55 |  | 
1.1 | CC(C)(C)/[N+]([O-])=C\c1ccco1 | 49 | 33 |  | 
2.68 | COc1cc(/C=[N+](/[O-])C(C)(C)C)ccc1OCc1ccccc1 | 40 | 35 |  | 
